Measurements published in patent US8192962B2, “Processes for detecting toxic substances” (Daikin Industries, Ltd., priority 2001, dated 2012).

Test system: Metabolism protein genes
Test: DNA chip mRNA expression in yeast, metabolism protein genes (Table 7)
Format: cell-based, Saccharomyces cerevisiae S288C
Description: Yeast (Saccharomyces cerevisiae S288C (α SUC2mal mel gap2 CUP1)) were incubated at 25° C. on YPD medium (yeast extract 1%, polypepton 2%, glucose 2%). One of toxic chemical substances was added to the cells at logarithmic growth phase, and the cells were further incubated for two hours. Cells were cultured without any chemical substance in the same condition, and were used as control. Concentrations of the chemical substances were defined to inhibit the growth of the yeast but not lead to death.
After completion of the incubation, the culture was centrifuged to collect the cells. To the cells, sodium acetate buffer (50 mM sodium acetate, 10 mM EDTA, 1% SDS) was added, and the mixture was shaken at 65° C. for five minutes, followed by returning to room temperature, and obtaining the supernatant, of which the procedures were repeated two times. To the supernatant, ½ amount of a solution of phenol/chloroform was added, and the mixture was centrifuged to give a supernatant, which was added with an equal amount of chloroform, and the mixture was centrifuged to give a supernatant. To the supernatant, an equal amount of isopropanol containing 0.3 M sodium acetate was added, and the mixture was allowed to stand at room temperature for 30 minutes, after which the mixture was centrifuged to give a sediment of the whole RNAs. Seventy % ethanol was added to the sediment, and the mixture was again centrifuged to give a sediment, which was then dried and dissolved in water. mRNA was isolated from the whole RNAs as followings. In view of the fact that a poly A chain is attached to the 3′ terminus of mRNA, a polynucleotide having a poly T structure which was immobilized on the surface of latex beads was used to trap the mRNA, and then the mRNA was washed and eluted with spine column (Oligotex-dT30<Super>mRNA Purification Kit, Takara). Reverse transcription of the mRNA was conducted with a reverse transcriptase (Super Script II Reverse Transcriptase; catalogue No. 18064-014, GibcoBRL) using fluorescence-labeled nucleotides to give cDNAs that were introduced with Cy3-dUTP or Cy5-dUTP during the reverse transcription.
The labeled cDNAs were dissolved in TE buffer (10mM Tris-HCl/1 mM EDTA, pH8.0), and the solution was dropped on the DNA chip containing the whole genes of yeast (DNA Chip Research Inc. Japan) so that the cDNAs were hybridized on the DNA chip at 65° C. for over 12 hours. The fluoresces intensity of the DNA chip was read with a scanner, and the ratio relative to the fluorescence intensity resulting from the absence of chemical substance was estimated as the following, which is shown in Tables 1 to 9: […]

## Oc1cc(Cl)c(Cl)cc1Cl [(6), 2,4,5-trichlorophenol]
Yeast gene YFL056C
  The level of expressed mRNA in the presence of chemical substance/The level of expressed mRNA in the absence of chemical substance: 0.6
Yeast gene YFL057C
  The level of expressed mRNA in the presence of chemical substance/The level of expressed mRNA in the absence of chemical substance: 1.2
Yeast gene YFR047C
  The level of expressed mRNA in the presence of chemical substance/The level of expressed mRNA in the absence of chemical substance: 2.0
Yeast gene YGL012W
  level of expressed mRNA in the presence/in the absence of chemical substance: 1.6
Yeast gene YGL022W
  The level of expressed mRNA in the presence of chemical substance/The level of expressed mRNA in the absence of chemical substance: 0.9
Yeast gene YGL115W
  level of expressed mRNA in the presence/in the absence of chemical substance: 1.2
Yeast gene YGL126W
  The level of expressed mRNA in the presence of chemical substance/The level of expressed mRNA in the absence of chemical substance: 1.6
Yeast gene YGL205W
  level of expressed mRNA in the presence/in the absence of chemical substance: 1.6
Yeast gene YGL209W
  The level of expressed mRNA in the presence of chemical substance/The level of expressed mRNA in the absence of chemical substance: 1.0
Yeast gene YGL248W
  The level of expressed mRNA in the presence of chemical substance/The level of expressed mRNA in the absence of chemical substance: 2.7
Yeast gene YGL253W
  The level of expressed mRNA in the presence of chemical substance/The level of expressed mRNA in the absence of chemical substance: 2.4
Yeast gene YGR037C
  The level of expressed mRNA in the presence of chemical substance/The level of expressed mRNA in the absence of chemical substance: 1.1
Yeast gene YGR055W
  The level of expressed mRNA in the presence of chemical substance/The level of expressed mRNA in the absence of chemical substance: 1.1
Yeast gene YGR096W
  level of expressed mRNA in the presence/in the absence of chemical substance: 1.7
Yeast gene YGR191W
  level of expressed mRNA in the presence/in the absence of chemical substance: 1.1
Yeast gene YGR194C
  The level of expressed mRNA in the presence of chemical substance/The level of expressed mRNA in the absence of chemical substance: 1.9
Yeast gene YGR204W
  level of expressed mRNA in the presence/in the absence of chemical substance: 0.6
Yeast gene YGR244C
  The level of expressed mRNA in the presence of chemical substance/The level of expressed mRNA in the absence of chemical substance: 2.6
Yeast gene YGR256W
  The level of expressed mRNA in the presence of chemical substance/The level of expressed mRNA in the absence of chemical substance: 6.2
Yeast gene YGR282C
  The level of expressed mRNA in the presence of chemical substance/The level of expressed mRNA in the absence of chemical substance: 2.2
Yeast gene YHR025W
  level of expressed mRNA in the presence/in the absence of chemical substance: 0.8
Yeast gene YHR111W
  The level of expressed mRNA in the presence of chemical substance/The level of expressed mRNA in the absence of chemical substance: 1.3
Yeast gene YHR123W
  level of expressed mRNA in the presence/in the absence of chemical substance: 1.0
Yeast gene YHR137W
  The level of expressed mRNA in the presence of chemical substance/The level of expressed mRNA in the absence of chemical substance: 0.7
Yeast gene YHR174W
  The level of expressed mRNA in the presence of chemical substance/The level of expressed mRNA in the absence of chemical substance: 1.5
Yeast gene YHR176W
  The level of expressed mRNA in the presence of chemical substance/The level of expressed mRNA in the absence of chemical substance: 2.3
Yeast gene YHR210C
  level of expressed mRNA in the presence/in the absence of chemical substance: 0.7
Yeast gene YIL006W
  level of expressed mRNA in the presence/in the absence of chemical substance: 0.3
Yeast gene YIL045W
  The level of expressed mRNA in the presence of chemical substance/The level of expressed mRNA in the absence of chemical substance: 1.7
Yeast gene YIL107C
  The level of expressed mRNA in the presence of chemical substance/The level of expressed mRNA in the absence of chemical substance: 1.0
Yeast gene YIL154C
  The level of expressed mRNA in the presence of chemical substance/The level of expressed mRNA in the absence of chemical substance: 1.1
Yeast gene YIL155C
  The level of expressed mRNA in the presence of chemical substance/The level of expressed mRNA in the absence of chemical substance: 1.4
Yeast gene YIL167W
  The level of expressed mRNA in the presence of chemical substance/The level of expressed mRNA in the absence of chemical substance: 7.7
Yeast gene YIR034C
  The level of expressed mRNA in the presence of chemical substance/The level of expressed mRNA in the absence of chemical substance: 1.3
Yeast gene YIR036C
  The level of expressed mRNA in the presence of chemical substance/The level of expressed mRNA in the absence of chemical substance: 0.7
Yeast gene YJL031C
  The level of expressed mRNA in the presence of chemical substance/The level of expressed mRNA in the absence of chemical substance: 1.6
Yeast gene YJL068C
  The level of expressed mRNA in the presence of chemical substance/The level of expressed mRNA in the absence of chemical substance: 1.1
Yeast gene YJL088W
  The level of expressed mRNA in the presence of chemical substance/The level of expressed mRNA in the absence of chemical substance: 2.8
Yeast gene YJL099W
  The level of expressed mRNA in the presence of chemical substance/The level of expressed mRNA in the absence of chemical substance: 2.0
Yeast gene YJL121C
  level of expressed mRNA in the presence/in the absence of chemical substance: 1.1
Yeast gene YJL167W
  level of expressed mRNA in the presence/in the absence of chemical substance: 1.3
Yeast gene YJL172W
  The level of expressed mRNA in the presence of chemical substance/The level of expressed mRNA in the absence of chemical substance: 3.8
Yeast gene YJL219W
  The level of expressed mRNA in the presence of chemical substance/The level of expressed mRNA in the absence of chemical substance: 1.5
Yeast gene YJL221C
  The level of expressed mRNA in the presence of chemical substance/The level of expressed mRNA in the absence of chemical substance: 6.6
Yeast gene YJR077C
  level of expressed mRNA in the presence/in the absence of chemical substance: 0.9
Yeast gene YJR137C
  The level of expressed mRNA in the presence of chemical substance/The level of expressed mRNA in the absence of chemical substance: 1.5
Yeast gene YJR143C
  level of expressed mRNA in the presence/in the absence of chemical substance: 0.6
Yeast gene YJR148W
  The level of expressed mRNA in the presence of chemical substance/The level of expressed mRNA in the absence of chemical substance: 2.0
Yeast gene YJR155W
  The level of expressed mRNA in the presence of chemical substance/The level of expressed mRNA in the absence of chemical substance: 1.4
